The values below come from US20120053170A1, “NICOTINAMIDE DERIVATIVES, PREPARATION THEREOF, AND THERAPEUTIC USE THEREOF AS ANTICANCER DRUGS” (SANOFI, priority 2009, published 2012).

The experiment has as its system HCT116 tumour line (ATCC-CCL247). Put plainly: MTS cell proliferation and viability test on the HCT116 tumour line. It counts as cell-based. As to conditions: Homo sapiens, HCT-116, incubating the test compound for 72 hours, read-out: IC50 (concentration of compound which results in a 50% loss of cell proliferation and viability). Here is the method:
They were tested in vitro on the HCT116 tumour line (ATCC-CCL247). […] In this test, the mitochondrial ability of the living cells to convert MTS to a coloured compound is measured after incubating the test compound for 72 hours.
Consider `Nc1ccc(CNC(=O)Nc2ccc(-c3ccc(C(=O)NCCN4CCCCC4)c(Nc4ccccc4)n3)cc2F)cn1` [Compound No. 5, 6-{4-[3-(6-Aminopyridin-3-ylmethyl)ureido]-3-fluorophenyl}-2-phenylamino-N-[2-(piperidin-1-yl)ethyl]nicotinamide], for which the IC50 is under 1 nM.

For the compound `CCNc1nc(-c2ccc(NC(=O)NCc3ccc(N)nc3)cc2F)ccc1C(=O)NCCN1CCCCC1` [Compound No. 11, 6-{4-[3-(6-Aminopyridin-3-ylmethyl)ureido]-2-fluorophenyl}-2-ethylamino-N-[2-(piperidin-1-yl)ethyl]nicotinamide], the IC50 was under 1 nM.

For the compound `CCNc1nc(-c2ccc(NC(=O)NCc3ccc(N)nc3)c(F)c2)ccc1C(=O)NCCN1[C@H](C)CCC[C@@H]1C` [Compound No. 19, 6-{4-[3-(6-Aminopyridin-3-ylmethyl)ureido]-3-fluorophenyl]-N-[2-(cis-2,6-dimethylpiperidin-1-yl)ethyl]-2-(ethylamino)nicotinamide], the IC50 is under 1 nM.

For `CCNc1nc(-c2ccc(NC(=O)NCc3cccnc3)c(F)c2)ccc1C(=O)NCCN1CCCCC1` [Compound No. 27, 2-Ethylamino-6-{3-fluoro-4-[3-(pyridin-3-ylmethyl)ureido]phenyl}-N-[2-(piperidin-1-yl)ethyl]nicotinamide], the IC50 was under 1 nM.
